Measurements: the supplement of paper PMC10307832

Key:
Experiment in all cases: relative viability (nuclei count vs DMSO), 5 days (fraction); higher = more cells survive
A-427 = tested on: A-427
Summary of the method: (§1)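 Relative viability was taken as the ratio of nuclei in treated wells to nuclei in vehicle wells. Lung cancer cell lines in 1536-well plates received compounds by pin tool one day after seeding, either one drug alone or a fixed anchor-drug dose plus five library-drug doses (not always all listed) in √10 steps. Nuclei were counted on 4× images after 5 days of treatment, and values are medians of duplicate plates.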

COR-L 105 = tested on: COR-L 105
Summary of the method: as §1

ChaGo-K-1 = tested on: ChaGo-K-1
Summary of the method: as §1

EKVX = tested on: EKVX
Summary of the method: as §1

EMC-BAC-2 = tested on: EMC-BAC-2
Summary of the method: as §1

H3255 = tested on: H3255
Summary of the method: as §1

HCC-366 = tested on: HCC-366
Summary of the method: as §1

LOU-NH91 = tested on: LOU-NH91
Summary of the method: as §1

NCI-H1563 = tested on: NCI-H1563
Summary of the method: as §1

NCI-H1666 = tested on: NCI-H1666
Summary of the method: as §1

NCI-H1734 = tested on: NCI-H1734
Summary of the method: as §1

NCI-H1755 = tested on: NCI-H1755
Summary of the method: as §1

NCI-H1975 = tested on: NCI-H1975
Summary of the method: as §1

NCI-H23 = tested on: NCI-H23
Summary of the method: as §1

NCI-H441 = tested on: NCI-H441
Summary of the method: as §1

NCI-H520 = tested on: NCI-H520
Summary of the method: as §1

NCI-H596 = tested on: NCI-H596
Summary of the method: as §1

PC-3 [JPC-3] = tested on: PC-3 [JPC-3]
Summary of the method: as §1

Nc1ccn([C@@H]2O[C@H](CO)[C@@H](O)[C@@H]2O)c(=O)n1 [Cytarabine] + CC(C)C[C@H](NC(=O)[C@H](Cc1ccccc1)NC(=O)c1cnccn1)B(O)O [Bortezomib] (partner 0.002 µM)
relative viability (A-427; first compound 0.005 µM): 0.752
relative viability (A-427; first compound 0.01581 µM): 0.46
relative viability (A-427; first compound 0.05 µM): 0.276
relative viability (A-427; first compound 0.1581 µM): 0.171
relative viability (A-427; first compound 0.5 µM): 0.166
relative viability (COR-L 105; first compound 0.005 µM): 0.676
relative viability (COR-L 105; first compound 0.01581 µM): 0.699
relative viability (COR-L 105; first compound 0.05 µM): 0.464
relative viability (COR-L 105; first compound 0.1581 µM): 0.399
relative viability (COR-L 105; first compound 0.5 µM): 0.285
relative viability (ChaGo-K-1; first compound 0.005 µM): 0.707
relative viability (ChaGo-K-1; first compound 0.01581 µM): 0.559
relative viability (ChaGo-K-1; first compound 0.05 µM): 0.443
relative viability (ChaGo-K-1; first compound 0.1581 µM): 0.437
relative viability (ChaGo-K-1; first compound 0.5 µM): 0.499
relative viability (EKVX; first compound 0.005 µM): 1.22
relative viability (EKVX; first compound 0.01581 µM): 0.947
relative viability (EKVX; first compound 0.05 µM): 0.801
relative viability (EKVX; first compound 0.1581 µM): 0.361
relative viability (EKVX; first compound 0.5 µM): 0.178
relative viability (EMC-BAC-2; first compound 0.005 µM): 1.03
relative viability (EMC-BAC-2; first compound 0.01581 µM): 1.09
relative viability (EMC-BAC-2; first compound 0.05 µM): 0.807
relative viability (EMC-BAC-2; first compound 0.1581 µM): 0.254
relative viability (EMC-BAC-2; first compound 0.5 µM): 0.229
relative viability (H3255; first compound 0.005 µM): 0.745
relative viability (H3255; first compound 0.01581 µM): 0.797
relative viability (H3255; first compound 0.05 µM): 0.575
relative viability (H3255; first compound 0.1581 µM): 0.517
relative viability (H3255; first compound 0.5 µM): 0.468
relative viability (HCC-366; first compound 0.005 µM): 1.16
relative viability (HCC-366; first compound 0.01581 µM): 0.911
relative viability (HCC-366; first compound 0.05 µM): 0.479
relative viability (HCC-366; first compound 0.1581 µM): 0.0971
relative viability (HCC-366; first compound 0.5 µM): 0.036
relative viability (LOU-NH91; first compound 0.005 µM): 0.406
relative viability (LOU-NH91; first compound 0.01581 µM): 0.47
relative viability (LOU-NH91; first compound 0.05 µM): 0.388
relative viability (LOU-NH91; first compound 0.1581 µM): 0.338
relative viability (LOU-NH91; first compound 0.5 µM): 0.357
relative viability (NCI-H1563; first compound 0.005 µM): 0.878
relative viability (NCI-H1563; first compound 0.01581 µM): 0.928
relative viability (NCI-H1563; first compound 0.05 µM): 0.779
relative viability (NCI-H1563; first compound 0.1581 µM): 0.835
relative viability (NCI-H1563; first compound 0.5 µM): 0.592
relative viability (NCI-H1666; first compound 0.005 µM): 0.7
relative viability (NCI-H1666; first compound 0.01581 µM): 0.705
relative viability (NCI-H1666; first compound 0.05 µM): 0.741
relative viability (NCI-H1666; first compound 0.1581 µM): 0.353
relative viability (NCI-H1666; first compound 0.5 µM): 0.318
relative viability (NCI-H1734; first compound 0.005 µM): 0.515
relative viability (NCI-H1734; first compound 0.01581 µM): 0.377
relative viability (NCI-H1734; first compound 0.05 µM): 0.347
relative viability (NCI-H1734; first compound 0.1581 µM): 0.149
relative viability (NCI-H1734; first compound 0.5 µM): 0.159
relative viability (NCI-H1755; first compound 0.005 µM): 0.922
relative viability (NCI-H1755; first compound 0.01581 µM): 0.88
relative viability (NCI-H1755; first compound 0.05 µM): 0.663
relative viability (NCI-H1755; first compound 0.1581 µM): 0.282
relative viability (NCI-H1755; first compound 0.5 µM): 0.294
relative viability (NCI-H1975; first compound 0.005 µM): 0.293
relative viability (NCI-H1975; first compound 0.01581 µM): 0.323
relative viability (NCI-H1975; first compound 0.05 µM): 0.276
relative viability (NCI-H1975; first compound 0.1581 µM): 0.23
relative viability (NCI-H1975; first compound 0.5 µM): 0.213
relative viability (NCI-H23; first compound 0.005 µM): 0.743
relative viability (NCI-H23; first compound 0.01581 µM): 0.656
relative viability (NCI-H23; first compound 0.05 µM): 0.559
relative viability (NCI-H23; first compound 0.1581 µM): 0.24
relative viability (NCI-H23; first compound 0.5 µM): 0.214
relative viability (NCI-H441; first compound 0.005 µM): 0.612
relative viability (NCI-H441; first compound 0.01581 µM): 0.376
relative viability (NCI-H441; first compound 0.05 µM): 0.483
relative viability (NCI-H441; first compound 0.1581 µM): 0.283
relative viability (NCI-H441; first compound 0.5 µM): 0.162
relative viability (NCI-H520; first compound 0.005 µM): 0.412
relative viability (NCI-H520; first compound 0.01581 µM): 0.363
relative viability (NCI-H520; first compound 0.05 µM): 0.697
relative viability (NCI-H520; first compound 0.1581 µM): 0.468
relative viability (NCI-H520; first compound 0.5 µM): 0.34
relative viability (NCI-H596; first compound 0.005 µM): 0.788
relative viability (NCI-H596; first compound 0.01581 µM): 0.853
relative viability (NCI-H596; first compound 0.05 µM): 0.904
relative viability (NCI-H596; first compound 0.1581 µM): 0.62
relative viability (NCI-H596; first compound 0.5 µM): 0.704
relative viability (PC-3 [JPC-3]; first compound 0.005 µM): 0.811
relative viability (PC-3 [JPC-3]; first compound 0.01581 µM): 0.795
relative viability (PC-3 [JPC-3]; first compound 0.05 µM): 0.779
relative viability (PC-3 [JPC-3]; first compound 0.1581 µM): 0.503
relative viability (PC-3 [JPC-3]; first compound 0.5 µM): 0.511
